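How tested: cells in 96-well plates exposed to compound for 48 hours at five concentrations. Here, GI50 denotes the concentration required for 50% inhibition of growth. TGI: total growth inhibition.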
Legend:
Assay in all cases: DTP human tumour cell line panel, 48 h
K-562 leukemia = system: K-562 leukemia
HCT-15 colon = system: HCT-15 colon
MOLT-4 leukemia = system: MOLT-4 leukemia
TK-10 renal = system: TK-10 renal
PC-3 prostate = system: PC-3 prostate
SK-MEL-5 melanoma = system: SK-MEL-5 melanoma
COLO 205 colon = system: COLO 205 colon
NCI/ADR-RES ovarian = system: NCI/ADR-RES ovarian
RXF 393 renal = system: RXF 393 renal
U251 CNS = system: U251 CNS
SF-539 CNS = system: SF-539 CNS
DU-145 prostate = system: DU-145 prostate
NCI-H23 lung = system: NCI-H23 lung
UO-31 renal = system: UO-31 renal
SN12C renal = system: SN12C renal
CAKI-1 renal = system: CAKI-1 renal
LOX IMVI melanoma = system: LOX IMVI melanoma
A498 renal = system: A498 renal
HCC-2998 colon = system: HCC-2998 colon
A549 NSCLC = system: A549 NSCLC
NCI-H460 lung = system: NCI-H460 lung
HL-60(TB) leukemia = system: HL-60(TB) leukemia
SNB-75 CNS = system: SNB-75 CNS
CCRF-CEM leukemia = system: CCRF-CEM leukemia
NCI-H226 lung = system: NCI-H226 lung
UACC-62 melanoma = system: UACC-62 melanoma
SF-268 CNS = system: SF-268 CNS
EKVX NSCLC = system: EKVX NSCLC
HS 578T breast = system: HS 578T breast
BT-549 breast = system: BT-549 breast
MCF7 breast = system: MCF7 breast
786-0 renal = system: 786-0 renal
UACC-257 melanoma = system: UACC-257 melanoma
SR leukemia = system: SR leukemia
IGROV1 ovarian = system: IGROV1 ovarian
HOP-92 NSCLC = system: HOP-92 NSCLC
SW-620 colon = system: SW-620 colon
MALME-3M melanoma = system: MALME-3M melanoma
MDA-MB-435 = system: MDA-MB-435
OVCAR-5 ovarian = system: OVCAR-5 ovarian
OVCAR-3 ovarian = system: OVCAR-3 ovarian
SK-MEL-28 melanoma = system: SK-MEL-28 melanoma
NCI-H522 lung = system: NCI-H522 lung
SK-OV-3 ovarian = system: SK-OV-3 ovarian
RPMI-8226 leukemia = system: RPMI-8226 leukemia
M14 melanoma = system: M14 melanoma
OVCAR-4 ovarian = system: OVCAR-4 ovarian
SK-MEL-2 melanoma = system: SK-MEL-2 melanoma
SF-295 CNS = system: SF-295 CNS
T-47D breast = system: T-47D breast
HCT-116 colon = system: HCT-116 colon
MDA-MB-231 breast = system: MDA-MB-231 breast
ACHN renal = system: ACHN renal
OVCAR-8 ovarian = system: OVCAR-8 ovarian
HT29 colon = system: HT29 colon
KM12 colon = system: KM12 colon
SNB-19 CNS = system: SNB-19 CNS
HOP-62 NSCLC = system: HOP-62 NSCLC

O=C(NNc1nc2cc(F)ccc2n2c(CN3CC4(COC4)C3)ccc12)c1cnccn1
GI50 (K-562 leukemia): 502 nM
TGI (K-562 leukemia): > 100000 nM
GI50 (HCT-15 colon): 188 nM
TGI (HCT-15 colon): 26300 nM
GI50 (MOLT-4 leukemia): 443 nM
TGI (MOLT-4 leukemia): > 75600 nM
GI50 (TK-10 renal): 263 nM
TGI (TK-10 renal): 23200 nM
GI50 (PC-3 prostate): 719 nM
TGI (PC-3 prostate): 31400 nM
GI50 (SK-MEL-5 melanoma): 673 nM
TGI (SK-MEL-5 melanoma): 5330 nM
GI50 (COLO 205 colon): 401 nM
TGI (COLO 205 colon): 16300 nM
GI50 (NCI/ADR-RES ovarian): 386 nM
TGI (NCI/ADR-RES ovarian): 9970 nM
GI50 (RXF 393 renal): 2290 nM
TGI (RXF 393 renal): 13700 nM
GI50 (U251 CNS): 395 nM
TGI (U251 CNS): > 53100 nM
GI50 (SF-539 CNS): 675 nM
TGI (SF-539 CNS): 8970 nM
GI50 (DU-145 prostate): 1180 nM
TGI (DU-145 prostate): > 82400 nM
GI50 (NCI-H23 lung): 1780 nM
TGI (NCI-H23 lung): 41800 nM
GI50 (UO-31 renal): 114 nM
TGI (UO-31 renal): 5710 nM
GI50 (SN12C renal): 952 nM
TGI (SN12C renal): 33500 nM
GI50 (CAKI-1 renal): 330 nM
TGI (CAKI-1 renal): 13200 nM
GI50 (LOX IMVI melanoma): 557 nM
TGI (LOX IMVI melanoma): 9720 nM
GI50 (A498 renal): 16700 nM
TGI (A498 renal): 34000 nM
GI50 (HCC-2998 colon): 709 nM
TGI (HCC-2998 colon): > 45900 nM
GI50 (A549 NSCLC): 611 nM
TGI (A549 NSCLC): 32700 nM
GI50 (NCI-H460 lung): 259 nM
TGI (NCI-H460 lung): 11600 nM
GI50 (HL-60(TB) leukemia): 469 nM
TGI (HL-60(TB) leukemia): 12900 nM
GI50 (SNB-75 CNS): 756 nM
TGI (SNB-75 CNS): 11000 nM
GI50 (CCRF-CEM leukemia): 281 nM
TGI (CCRF-CEM leukemia): > 70400 nM
GI50 (NCI-H226 lung): 1050 nM
TGI (NCI-H226 lung): 10800 nM
GI50 (UACC-62 melanoma): 406 nM
TGI (UACC-62 melanoma): 1960 nM
GI50 (SF-268 CNS): 616 nM
TGI (SF-268 CNS): > 100000 nM
GI50 (EKVX NSCLC): 438 nM
TGI (EKVX NSCLC): 30000 nM
GI50 (HS 578T breast): 3040 nM
TGI (HS 578T breast): > 95200 nM
GI50 (BT-549 breast): 907 nM
TGI (BT-549 breast): 9220 nM
GI50 (MCF7 breast): 596 nM
TGI (MCF7 breast): 9810 nM
GI50 (786-0 renal): 458 nM
TGI (786-0 renal): 11200 nM
GI50 (UACC-257 melanoma): 1720 nM
TGI (UACC-257 melanoma): 8070 nM
GI50 (SR leukemia): 409 nM
TGI (SR leukemia): > 100000 nM
GI50 (IGROV1 ovarian): 717 nM
TGI (IGROV1 ovarian): 18900 nM
GI50 (HOP-92 NSCLC): 983 nM
TGI (HOP-92 NSCLC): 23300 nM
GI50 (SW-620 colon): 620 nM
TGI (SW-620 colon): > 56300 nM
GI50 (MALME-3M melanoma): 1600 nM
TGI (MALME-3M melanoma): 11900 nM
GI50 (MDA-MB-435): 1300 nM
TGI (MDA-MB-435): > 47500 nM
GI50 (OVCAR-5 ovarian): 1160 nM
TGI (OVCAR-5 ovarian): 34300 nM
GI50 (OVCAR-3 ovarian): 650 nM
TGI (OVCAR-3 ovarian): 22700 nM
GI50 (SK-MEL-28 melanoma): 861 nM
TGI (SK-MEL-28 melanoma): 25100 nM
GI50 (NCI-H522 lung): 497 nM
TGI (NCI-H522 lung): 5500 nM
GI50 (SK-OV-3 ovarian): 548 nM
TGI (SK-OV-3 ovarian): 9880 nM
GI50 (RPMI-8226 leukemia): 689 nM
TGI (RPMI-8226 leukemia): 28100 nM
GI50 (M14 melanoma): 451 nM
TGI (M14 melanoma): 3530 nM
GI50 (OVCAR-4 ovarian): 490 nM
TGI (OVCAR-4 ovarian): > 39100 nM
GI50 (SK-MEL-2 melanoma): 2190 nM
TGI (SK-MEL-2 melanoma): 14700 nM
GI50 (SF-295 CNS): 319 nM
TGI (SF-295 CNS): 12200 nM
GI50 (T-47D breast): 558 nM
TGI (T-47D breast): 22300 nM
GI50 (HCT-116 colon): 373 nM
TGI (HCT-116 colon): 13300 nM
GI50 (MDA-MB-231 breast): 696 nM
TGI (MDA-MB-231 breast): 19500 nM
GI50 (ACHN renal): 233 nM
TGI (ACHN renal): 11700 nM
GI50 (OVCAR-8 ovarian): 404 nM
TGI (OVCAR-8 ovarian): 16300 nM
GI50 (HT29 colon): 499 nM
TGI (HT29 colon): 16800 nM
GI50 (KM12 colon): 579 nM
TGI (KM12 colon): > 64200 nM
GI50 (SNB-19 CNS): 854 nM
TGI (SNB-19 CNS): > 100000 nM
GI50 (HOP-62 NSCLC): 442 nM
TGI (HOP-62 NSCLC): 22100 nM
